This is an account of results in paper PMC7828231, “Delphinidin Increases the Sensitivity of Ovarian Cancer Cell Lines to 3-bromopyruvate” (International Journal of Molecular Sciences, 2021).

Where two headings read alike, the source gives them in different places.

What all share (assay): Cytotoxicity, Neutral Red survival assay
What all share (assay type): cell-based, human

One test has as its system SKOV3 cells. The settings on record: Homo sapiens. As to the method:
(§1) SKOV3 and PEO1 cells were seeded in a clear 96-well plate at a density of 1 × 10^4 cells/well in 100-µL culture medium. MRC-5 cells were seeded at a density of 7.5 × 10^3/well and allowed to attach for 24 h at 37 °C. After incubation, the cells were treated with delphinidin chloride in a concentration range of 10–100 µM and 3-BP at concentrations between 5–25 µM for PEO1 and 10–50 µM for MRC-5 and SKOV3. Nontreated cells were used as a control. Stock solutions of tested substances were prepared in DMSO and their working solutions in culture media. The DMSO concentration was adjusted to 0.2% in all samples, which had no significant effect on the treated cells. After 24-h exposure time, the medium was removed and replaced with 100 µL of […] neutral red solution, and the cells were incubated at 37 °C for 1 h. Then, the cells were washed with PBS; fixed with 100 µL/well of 50% ethanol, 49% H2O and 1% glacial acetic acid and shaken (700 rpm) at room temperature for 20 min. Absorbance was measured at 540 nm against 620 nm.

Another test deals with PEO1 cells. The settings on record: Homo sapiens. The protocol: as §1
A further test relates to MRC-5 fibroblasts. The settings on record: Homo sapiens, MRC5, read-out: IC50 of cell survival (extrapolated). The protocol:
as §1

The mark [1] stands for this setting: PEO1, 24 h, PEO1, 24-h exposure, Neutral Red, ND = no reduction of survival in the concentration range studied, read-out: IC50 of cell survival.
The mark [2] stands for this setting: SK-OV-3, SKOV3, extrapolated from data obtained in the concentration range of 1–100 µM, read-out: IC50 of cell survival (extrapolated).
Setting [3] is: PEO1, PEO1, extrapolated from data obtained in the concentration range of 1–100 µM, read-out: IC50 of cell survival (extrapolated).

As for `COc1c(O)cc2oc(-c3ccc(O)cc3)cc(=O)c2c1O` [Hispidulin], the IC50 in the test on SKOV3 cells (SK-OV-3, read-out: IC50 of cell survival (extrapolated)) was greater than 100 µM; in the test on PEO1 cells (PEO1, 24 h, read-out: IC50 of cell survival), 181 µM.

With `O=c1c(O)c(-c2cc(O)c(O)c(O)c2)oc2cc(O)cc(O)c12` [Myricetin], in the test with PEO1 cells (setting [1]), the IC50 worked out at 196 µM.

For the compound `COc1cc(-c2[o+]c3cc(O)cc(O)c3cc2O)cc(OC)c1O` [Malvidin chloride], the 50% inhibitory concentration (IC50) is greater than 100 µM with MRC-5 fibroblasts; 90 µM with SKOV3 cells (SK-OV-3, 24 h, read-out: IC50 of cell survival); greater than 100 µM in the test on PEO1 cells (PEO1, read-out: IC50 of cell survival (extrapolated)).

Regarding `Oc1cc(O)c2cc(O)c(-c3ccc(O)c(O)c3)[o+]c2c1` [Cyanidin chloride], in the test on PEO1 cells (setting [1]), the half-maximal inhibitory concentration (IC50) stood at 107 µM.

Regarding `O=c1c(-c2ccc(O)cc2)coc2cc(O)ccc12` [Daidzein], the half-maximal inhibitory concentration (IC50) with SKOV3 cells (setting [2]) and in the test on PEO1 cells (setting [3]) was greater than 100 µM throughout.

For the compound `O=c1c(-c2ccc(O)cc2)coc2cc(O)cc(O)c12` [Genistein], the half-inhibitory concentration (IC50) in the test on SKOV3 cells (setting [2]) and in the test on PEO1 cells (setting [3]) was greater than 100 µM in each case.

As a reminder, the IC50 is the concentration that inhibits the measured activity by half.
